Experimental data as given in patent US8791303B2, “Herbicides” (Syngenta Limited, priority 2009, dated 2014).

Experiments:
Avena fatua (AVEFA) [1] = experiment: Example A glasshouse herbicide test, pre-emergence, AVEFA; type: in vivo; conditions: Avena fatua, pre-emergence, 312 h, Rate 250 g/ha, sprayed after cultivation for one day, evaluated after 13 days, read-out: Pre-Emergence Activity AVEFA (100=total damage to plant; 0=no damage to plant)
Method in brief: (§1)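 Glasshouse pots, standard soil; spray at day 1 (pre-em.) or day 8 (post-em.); acetone/water 50:50 + 0.5% Tween 20 vehicle; 24/16° C., 14 h light, 65% RH, watered twice daily; visual damage rating at 13 d, 100 = total damage, 0 = none.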

[2] = test system: Winter Wheat variety 'Hereward'; experiment: Example B crop damage test, post-emergence, wheat seed treated with safener cloquintocet mexyl; type: in vivo; conditions: Rate 250 g/ha; post-emergence spray 8 days after sowing; seed treated with cloquintocet mexyl 0.5 g/kg dry seed; evaluated after 13 days
Method in brief: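 Wheat seed pre-treated with cloquintocet mexyl at 0.5 g/kg seed, sown 8 days before post-emergence spraying of compound in acetone/water (50:50) with 0.5% Tween 20. Glasshouse at 24/16° C, 14 h light, 65% humidity. Damage scored visually after 13 days, 0 (none) to 100 (total).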

[3] = test system: Echinochloa crus-galli (ECHCG); experiment: Example A glasshouse herbicide test, post-emergence, ECHCG; type: in vivo; conditions: Echinochloa crus-galli, post-emergence, 312 h, Rate 250 g/ha, sprayed after 8 days cultivation, evaluated after 13 days, read-out: Post-Emergence Activity ECHCG (100=total damage to plant; 0=no damage to plant)
Method in brief: as §1

Avena fatua (AVEFA) [4] = experiment: Example A glasshouse herbicide test, post-emergence, AVEFA; type: in vivo; conditions: Avena fatua, post-emergence, 312 h, Rate 250 g/ha, sprayed after 8 days cultivation, evaluated after 13 days, read-out: Post-Emergence Activity AVEFA (100=total damage to plant; 0=no damage to plant)
Method in brief: as §1

[5] = test system: Alopecurus myosuroides (ALOMY); experiment: Example A glasshouse herbicide test, pre-emergence, ALOMY; type: in vivo; conditions: Alopecurus myosuroides, pre-emergence, 312 h, Rate 250 g/ha, sprayed after cultivation for one day, evaluated after 13 days, read-out: Pre-Emergence Activity ALOMY (100=total damage to plant; 0=no damage to plant)
Method in brief: as §1

Lolium perenne (LOLPE) [6] = experiment: Example A glasshouse herbicide test, post-emergence, LOLPE; type: in vivo; conditions: Lolium perenne, post-emergence, 312 h, Rate 250 g/ha, sprayed after 8 days cultivation, evaluated after 13 days, read-out: Post-Emergence Activity LOLPE (100=total damage to plant; 0=no damage to plant)
Method in brief: as §1

[7] = test system: Alopecurus myosuroides (ALOMY); experiment: Example A glasshouse herbicide test, post-emergence, ALOMY; type: in vivo; conditions: Alopecurus myosuroides, post-emergence, 312 h, Rate 250 g/ha, sprayed after 8 days cultivation, evaluated after 13 days, read-out: Post-Emergence Activity ALOMY (100=total damage to plant; 0=no damage to plant)
Method in brief: as §1

[8] = test system: Echinochloa crus-galli (ECHCG); experiment: Example A glasshouse herbicide test, pre-emergence, ECHCG; type: in vivo; conditions: Echinochloa crus-galli, pre-emergence, 312 h, Rate 250 g/ha, sprayed after cultivation for one day, evaluated after 13 days, read-out: Pre-Emergence Activity ECHCG (100=total damage to plant; 0=no damage to plant)
Method in brief: as §1

Lolium perenne (LOLPE) [9] = experiment: Example A glasshouse herbicide test, pre-emergence, LOLPE; type: in vivo; conditions: Lolium perenne, pre-emergence, 312 h, Rate 250 g/ha, sprayed after cultivation for one day, evaluated after 13 days, read-out: Pre-Emergence Activity LOLPE (100=total damage to plant; 0=no damage to plant)
Method in brief: as §1

[10] = test system: Winter Wheat variety 'Hereward'; experiment: Example B crop damage test, post-emergence, unsafened wheat; type: in vivo; conditions: Rate 250 g/ha; post-emergence spray after 8 days cultivation; no safener; evaluated after 13 days
Method in brief: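 Winter wheat 'Hereward' was sprayed post-emergence 8 days after sowing, using formulated active ingredient in acetone/water (50:50) with 0.5% Tween 20. Plants grew in a glasshouse at 24/16 °C day/night, 14 h light and 65% humidity. Damage was scored 13 days later (0 = none, 100 = total).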

Row | melting point | SMILES | pest or weed control at 250 g/ha (Avena fatua (AVEFA) [1]) | Winter Wheat (Hereward) + cloquintocet mexyl damage (100=total damage to plant; 0=no damage to plant) [2] | pest or weed control at 250 g/ha [3] | pest or weed control at 250 g/ha (Avena fatua (AVEFA) [4]) | pest or weed control at 250 g/ha [5] | pest or weed control at 250 g/ha (Lolium perenne (LOLPE) [6]) | pest or weed control at 250 g/ha [7] | pest or weed control at 250 g/ha [8] | pest or weed control at 250 g/ha (Lolium perenne (LOLPE) [9]) | Winter Wheat (Hereward) damage (100=total damage to plant; 0=no damage to plant) [10]
1 | 197.8 to 210.2 °C | Cc1cc(C)c(C2C(=O)CC(Cc3ccccc3F)C2=O)c(C)c1 (stereo not drawn) [Compound A14] | 40% | 20 | 80% | 30% | 70% | 90% | 80% | 90% | 100% | 30
2 | 210 to 215.5 °C | Cc1cc(C)c(C2C(=O)CC(Cc3ccccc3C)C2=O)c(C)c1 (stereo not drawn) [Compound A15] | 70% | 20 | 40% | 50% | 70% | 90% | 80% | 60% | 100% | 30
3 | 160 to 165 °C | Cc1cc(C)c(C2C(=O)CC(Cc3ccccc3)C2=O)c(C)c1 (stereo not drawn) [Compound A17] | 30% | 10 | 60% | 40% | 50% | 80% | 80% | 70% | 90% | 10
4 | 173 to 179 °C | Cc1cccc(CC2CC(=O)C(c3c(C)cc(C)cc3C)C2=O)c1 (stereo not drawn) [Compound A18] | 50% | 10 | 50% | 50% | 80% | 90% | 80% | 100% | 100% | 20
5 | 249 to 251 °C | Cc1cc(C)c(C2C(=O)CC(Cc3ccc(C#N)cc3)C2=O)c(C)c1 (stereo not drawn) [Compound A19] | 40% | 10 | 90% | 60% | 80% | 90% | 90% | 100% | 90% | 60
6 | 193 to 193.2 °C | Cc1cc(C)c(C2C(=O)CC(Cc3cc(F)cc(F)c3)C2=O)c(C)c1 (stereo not drawn) [Compound A20] | 20% | 0 | 50% | 30% | 30% | 50% | 20% | 80% | 100% | 10
7 | 181 to 184 °C | Cc1cc(C)cc(CC2CC(=O)C(c3c(C)cc(C)cc3C)C2=O)c1 (stereo not drawn) [Compound A21] | 20% | 20 | 60% | 20% | 60% | 30% | 40% | 90% | 100% | 20
8 | 189 to 191.7 °C | Cc1cc(C)c(C2C(=O)CC(Cc3ccc(CS(=O)(=O)c4ccccc4)cc3)C2=O)c(C)c1 (stereo not drawn) [Compound A22] | 0% | – | 20% | 10% | 0% | 20% | 0% | 30% | 20% | –
9 | 235.3 to 238.6 °C | Cc1cc(C)c(C2C(=O)CC(Cc3ccc(S(C)(=O)=O)cc3)C2=O)c(C)c1 (stereo not drawn) [Compound A23] | 80% | 50 | 90% | 90% | 90% | 50% | 90% | 90% | 100% | 50
10 | 197.3 to 197.6 °C | COc1ccc(CC2CC(=O)C(c3c(C)cc(C)cc3C)C2=O)cc1 (stereo not drawn) [Compound A24] | 80% | 10 | 30% | 90% | 90% | 80% | 80% | 80% | 100% | 40
